Assays:
Escherichia coli = experiment: Antibacterial activity against Escherichia coli harboring tolC deletion mutant assessed as reduction in microbial growth incubated for 16 hrs by serial dilution method; type: functional
[1] = target: UDP-N-acetylglucosamine 1-carboxyvinyltransferase (Escherichia coli K-12) (UniProt P0A749); experiment: Inhibition of Escherichia coli K12 His-tagged MurA expressed in Escherichia coli BL21 cells at 50 uM using UNAG as substrate pre incubated for 15 mins followed by substrate addition and measured after 15 mins by microplate reader analysis relative to control; settings: time 30.0 min
Sequence of UDP-N-acetylglucosamine 1-carboxyvinyltransferase (Escherichia coli K-12) (P0A749 whole entry): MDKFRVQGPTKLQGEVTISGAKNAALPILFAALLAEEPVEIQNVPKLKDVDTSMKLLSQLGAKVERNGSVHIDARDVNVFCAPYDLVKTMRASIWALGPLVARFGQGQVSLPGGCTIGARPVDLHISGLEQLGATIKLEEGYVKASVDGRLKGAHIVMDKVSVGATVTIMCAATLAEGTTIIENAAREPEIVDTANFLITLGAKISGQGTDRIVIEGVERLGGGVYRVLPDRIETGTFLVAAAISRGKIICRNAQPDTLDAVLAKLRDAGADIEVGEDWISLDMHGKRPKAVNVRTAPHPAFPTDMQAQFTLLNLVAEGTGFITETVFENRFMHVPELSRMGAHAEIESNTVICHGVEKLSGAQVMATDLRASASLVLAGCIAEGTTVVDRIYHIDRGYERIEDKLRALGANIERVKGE

Staphylococcus aureus [2] = experiment: Antibacterial activity against Staphylococcus aureus Newman D2C NCTC 10833 assessed as reduction in microbial growth incubated for 16 hrs by serial dilution method; type: functional
Staphylococcus aureus [3] = experiment: Antibacterial activity against methicillin sensitive Staphylococcus aureus NRS107 assessed as reduction in microbial growth by CLSI based broth microdilution method; type: functional
Staphylococcus aureus [4] = experiment: Antibacterial activity against methicillin resistant Staphylococcus aureus NRS119 assessed as reduction in microbial growth by CLSI based broth microdilution method; type: functional
Staphylococcus aureus [5] = experiment: Antibacterial activity against methicillin resistant Staphylococcus aureus USA300 assessed as reduction in microbial growth by CLSI based broth microdilution method; type: functional
Streptococcus pneumoniae = experiment: Antibacterial activity against Streptococcus pneumoniae ATCC 700677 assessed as reduction in microbial growth by CLSI based broth microdilution method; type: functional
Clostridioides difficile [6] = experiment: Antibacterial activity against Clostridioides difficile ATCC BAA1870 assessed as reduction in microbial growth incubated for 48 hrs by broth microdilution method; type: functional
Clostridioides difficile [7] = experiment: Antibacterial activity against Clostridioides difficile NR-32895 assessed as reduction in microbial growth incubated for 48 hrs by broth microdilution method; type: functional
Clostridioides difficile [8] = experiment: Antibacterial activity against Clostridioides difficile NR-32889 assessed as reduction in microbial growth incubated for 48 hrs by broth microdilution method; type: functional
Clostridioides difficile [9] = experiment: Antibacterial activity against Clostridioides difficile NR-13427 assessed as reduction in microbial growth incubated for 48 hrs by broth microdilution method; type: functional
Clostridioides difficile [10] = experiment: Antibacterial activity against Clostridioides difficile NR-49277 assessed as reduction in microbial growth incubated for 48 hrs by broth microdilution method; type: functional
Clostridioides difficile [11] = experiment: Antibacterial activity against Clostridioides difficile NR-49279 assessed as reduction in microbial growth incubated for 48 hrs by broth microdilution method; type: functional
Clostridioides difficile [12] = experiment: Antibacterial activity against Clostridioides difficile NR-49282 assessed as reduction in microbial growth incubated for 48 hrs by broth microdilution method; type: functional
Clostridioides difficile [13] = experiment: Antibacterial activity against Clostridioides difficile NR-49283 assessed as reduction in microbial growth incubated for 48 hrs by broth microdilution method; type: functional
Clostridioides difficile [14] = experiment: Antibacterial activity against Clostridioides difficile NR-49284 assessed as reduction in microbial growth incubated for 48 hrs by broth microdilution method; type: functional
Clostridioides difficile [15] = experiment: Antibacterial activity against Clostridioides difficile NR-49285 assessed as reduction in microbial growth incubated for 48 hrs by broth microdilution method; type: functional
Clostridioides difficile [16] = experiment: Antibacterial activity against Clostridioides difficile NR-49287 assessed as reduction in microbial growth incubated for 48 hrs by broth microdilution method; type: functional
Clostridioides difficile [17] = experiment: Antibacterial activity against Clostridioides difficile NR-49288 assessed as reduction in microbial growth incubated for 48 hrs by broth microdilution method; type: functional
Clostridioides difficile [18] = experiment: Antibacterial activity against Clostridioides difficile NR-49291 assessed as reduction in microbial growth incubated for 48 hrs by broth microdilution method; type: functional
Clostridioides difficile [19] = experiment: Antibacterial activity against Clostridioides difficile NR-49294 assessed as reduction in microbial growth incubated for 48 hrs by broth microdilution method; type: functional
Clostridioides difficile [20] = experiment: Antibacterial activity against Clostridioides difficile ATCC 43255 assessed as reduction in microbial growth incubated for 48 hrs by broth microdilution method; type: functional
Clostridioides difficile [21] = experiment: Antibacterial activity against Clostridioides difficile HM-88 assessed as reduction in microbial growth incubated for 48 hrs by broth microdilution method; type: functional
Clostridioides difficile [22] = experiment: Bactericidal activity against Clostridioides difficile NR-32895 assessed as reduction in microbial growth by broth microdilution method; type: functional
Clostridioides difficile [23] = experiment: Bactericidal activity against Clostridioides difficile NR-32904 assessed as reduction in microbial growth by broth microdilution method; type: functional
Clostridioides difficile [24] = experiment: Bactericidal activity against Clostridioides difficile ATCC BAA1870 assessed as reduction in microbial growth by broth microdilution method; type: functional
Clostridioides difficile [25] = experiment: Bactericidal activity against Clostridioides difficile ATCC 43255 assessed as reduction in microbial growth by broth microdilution method; type: functional
Bacteroides fragilis [26] = experiment: Antibacterial activity against Bacteroides fragilis HM 20 assessed as reduction in microbial growth incubated for 48 hrs by broth microdilution method; type: functional
Bacteroides fragilis [27] = experiment: Antibacterial activity against Bacteroides fragilis HM 709 assessed as reduction in microbial growth incubated for 48 hrs by broth microdilution method; type: functional
Bacteroides fragilis [28] = experiment: Antibacterial activity against Bacteroides fragilis HM 718 assessed as reduction in microbial growth incubated for 48 hrs by broth microdilution method; type: functional
Bacteroides fragilis [29] = experiment: Antibacterial activity against Bacteroides fragilis HM 719 assessed as reduction in microbial growth incubated for 48 hrs by broth microdilution method; type: functional
Bifidobacterium breve [30] = experiment: Antibacterial activity against Bifidobacterium breve HM 412 assessed as reduction in microbial growth incubated for 48 hrs by broth microdilution method; type: functional
Bifidobacterium longum = experiment: Antibacterial activity against Bifidobacterium longum HM 846 assessed as reduction in microbial growth incubated for 48 hrs by broth microdilution method; type: functional
[31] = system: Bifidobacterium angulatum; experiment: Antibacterial activity against Bifidobacterium angulatum HM 1189 assessed as reduction in microbial growth incubated for 48 hrs by broth microdilution method; type: functional
Bifidobacterium breve [32] = experiment: Antibacterial activity against Bifidobacterium breve HM1120 assessed as reduction in microbial growth incubated for 48 hrs by broth microdilution method; type: functional
Lactobacillus gasseri [33] = experiment: Antibacterial activity against Lactobacillus gasseri HM 403 assessed as reduction in microbial growth incubated for 48 hrs by broth microdilution method; type: functional
Lactobacillus gasseri [34] = experiment: Antibacterial activity against Lactobacillus gasseri HM 407 assessed as reduction in microbial growth incubated for 48 hrs by broth microdilution method; type: functional
Lactobacillus crispatus [35] = experiment: Antibacterial activity against Lactobacillus crispatus HM 103 assessed as reduction in microbial growth incubated for 48 hrs by broth microdilution method; type: functional
Lactobacillus crispatus [36] = experiment: Antibacterial activity against Lactobacillus crispatus HM 420 assessed as reduction in microbial growth incubated for 48 hrs by broth microdilution method; type: functional
Clostridioides difficile [37] = experiment: Selectivity ratio of MBC for antibacterial activity against Clostridioides difficile NR-32895 to MIC for antibacterial activity against Clostridioides difficile NR-32895; type: functional
Clostridioides difficile [38] = experiment: Selectivity ratio of MBC for antibacterial activity against Clostridioides difficile NR-49284 to MIC for antibacterial activity against Clostridioides difficile NR-49284; type: functional
Clostridioides difficile [39] = experiment: Selectivity ratio of MBC for antibacterial activity against Clostridioides difficile ATCC 43255 to MIC for antibacterial activity against Clostridioides difficile […]; type: functional
[40] = Stability of compound in LB broth medium at 10 uM incubated for 24 hrs at 37 degC by UHPLC-MS/MS analysis; type: physicochemical
[41] = Stability of compound in Staphylococcus aureus Newman cell lysate at 10 uM incubated for 24 hrs at 37 degC by UHPLC-MS/MS analysis; type: ADME, subcellular

SMILES: O=C(Nc1ncc([N+](=O)[O-])s1)C1CN(c2cccc(Cl)c2)N(c2cccc(Cl)c2)C1=O (stereo not drawn)
- MIC (Escherichia coli): > 40 µM
- inhibition [1]: 67.6%
- MIC (Staphylococcus aureus [2]): 10 µM
- MIC (Staphylococcus aureus [3]): 2 µg/mL
- MIC (Staphylococcus aureus [4]): 1 µg/mL
- MIC (Staphylococcus aureus [5]): 4 µg/mL
- MIC (Streptococcus pneumoniae): 4 µg/mL
- MIC (Clostridioides difficile [6]): 0.25 µg/mL
- MIC (Clostridioides difficile [7]): 0.5 µg/mL
- MIC (Clostridioides difficile [8]): 0.5 µg/mL
- MIC (Clostridioides difficile [9]): 0.5 µg/mL
- MIC (Clostridioides difficile [10]): 0.5 µg/mL
- MIC (Clostridioides difficile [11]): 0.25 µg/mL
- MIC (Clostridioides difficile [12]): 0.5 µg/mL
- MIC (Clostridioides difficile [13]): 0.5 µg/mL
- MIC (Clostridioides difficile [14]): 0.5 µg/mL
- MIC (Clostridioides difficile [15]): 0.5 µg/mL
- MIC (Clostridioides difficile [16]): 0.5 µg/mL
- MIC (Clostridioides difficile [17]): 0.25 µg/mL
- MIC (Clostridioides difficile [18]): 1 µg/mL
- MIC (Clostridioides difficile [19]): 0.5 µg/mL
- MIC (Clostridioides difficile [20]): 0.125 µg/mL
- MIC (Clostridioides difficile [21]): 0.5 µg/mL
- MBC (Clostridioides difficile [22]): 1 µg/mL
- MBC (Clostridioides difficile [23]): 1 µg/mL
- MBC (Clostridioides difficile [24]): 0.25 µg/mL
- MBC (Clostridioides difficile [25]): 0.25 µg/mL
- MIC (Bacteroides fragilis [26]): 4 µg/mL
- MIC (Bacteroides fragilis [27]): 4 µg/mL
- MIC (Bacteroides fragilis [28]): 8 µg/mL
- MIC (Bacteroides fragilis [29]): 8 µg/mL
- MIC (Bifidobacterium breve [30]): 64 µg/mL
- MIC (Bifidobacterium longum): 16 µg/mL
- MIC [31]: 32 µg/mL
- MIC (Bifidobacterium breve [32]): 64 µg/mL
- MIC (Lactobacillus gasseri [33]): > 64 µg/mL
- MIC (Lactobacillus gasseri [34]): > 64 µg/mL
- MIC (Lactobacillus crispatus [35]): > 64 µg/mL
- MIC (Lactobacillus crispatus [36]): > 64 µg/mL
- Ratio (Clostridioides difficile [37]): 1
- Ratio (Clostridioides difficile [38]): 1
- Ratio (Clostridioides difficile [39]): 1
- Stability [40]: Stable
- Stability [41]: Stable

SMILES: O=C(Nc1ncc([N+](=O)[O-])s1)C1CN(c2ccc(Cl)cc2)N(c2ccc(Cl)cc2)C1=O (stereo not drawn)
- MIC (Escherichia coli): > 40 µM
- inhibition [1]: 70.2%
- MIC (Staphylococcus aureus [2]): 10 µM
- MIC (Staphylococcus aureus [3]): 64 µg/mL
- MIC (Staphylococcus aureus [4]): 64 µg/mL
- MIC (Staphylococcus aureus [5]): 32 µg/mL
- MIC (Streptococcus pneumoniae): 64 µg/mL
- MIC (Clostridioides difficile [6]): 0.5 µg/mL
- MIC (Clostridioides difficile [7]): 1 µg/mL
- MIC (Clostridioides difficile [8]): 0.25 µg/mL
- MIC (Clostridioides difficile [9]): 0.5 µg/mL
- MIC (Clostridioides difficile [10]): 1 µg/mL
- MIC (Clostridioides difficile [11]): 0.5 µg/mL
- MIC (Clostridioides difficile [12]): 0.5 µg/mL
- MIC (Clostridioides difficile [13]): 0.5 µg/mL
- MIC (Clostridioides difficile [14]): 0.5 µg/mL
- MIC (Clostridioides difficile [15]): 1 µg/mL
- MIC (Clostridioides difficile [16]): 0.5 µg/mL
- MIC (Clostridioides difficile [17]): 0.25 µg/mL
- MIC (Clostridioides difficile [18]): 1 µg/mL
- MIC (Clostridioides difficile [19]): 0.5 µg/mL
- MIC (Clostridioides difficile [20]): 0.25 µg/mL
- MIC (Clostridioides difficile [21]): 0.5 µg/mL
- MBC (Clostridioides difficile [22]): 1 µg/mL
- MBC (Clostridioides difficile [23]): 1 µg/mL
- MBC (Clostridioides difficile [24]): 0.5 µg/mL
- MBC (Clostridioides difficile [25]): 0.5 µg/mL
- MIC (Bacteroides fragilis [26]): 8 µg/mL
- MIC (Bacteroides fragilis [27]): 4 µg/mL
- MIC (Bacteroides fragilis [28]): 8 µg/mL
- MIC (Bacteroides fragilis [29]): 4 µg/mL
- MIC (Bifidobacterium breve [30]): > 64 µg/mL
- MIC (Bifidobacterium longum): 32 µg/mL
- MIC [31]: > 64 µg/mL
- MIC (Bifidobacterium breve [32]): > 64 µg/mL
- MIC (Lactobacillus gasseri [33]): > 64 µg/mL
- MIC (Lactobacillus gasseri [34]): > 64 µg/mL
- MIC (Lactobacillus crispatus [35]): > 64 µg/mL
- MIC (Lactobacillus crispatus [36]): > 64 µg/mL
- Ratio (Clostridioides difficile [37]): 1
- Ratio (Clostridioides difficile [38]): 1
- Ratio (Clostridioides difficile [39]): 1
- Stability [40]: Stable
- Stability [41]: Stable

Reference: ChEMBL document CHEMBL5537113, “Discovery of 1,2-diaryl-3-oxopyrazolidin-4-carboxamides as a new class of MurA enzyme inhibitors and characterization of their antibacterial activity” (Eur J Med Chem, 2023)
